Measured values as given in ChEMBL document CHEMBL1212812, “Multi-target spectral moment QSAR versus ANN for antiparasitic drugs against different parasite species” (Bioorg Med Chem, 2010).

Experiments:
Type in all cases: functional, organism-based
[1] = system: Trypanosoma cruzi; experiment: Antimicrobial activity against Trypanosoma cruzi
[2] = system: Leishmania donovani; experiment: Antimicrobial activity against Leishmania donovani
[3] = system: Trypanosoma brucei brucei; experiment: Antimicrobial activity against Trypanosoma brucei brucei
[4] = system: Trichomonas vaginalis; experiment: Antimicrobial activity against Trichomonas vaginalis
[5] = system: Leishmania infantum; experiment: Antimicrobial activity against Leishmania infantum
[6] = system: Plasmodium falciparum; experiment: Antimicrobial activity against Plasmodium falciparum

| Structure (SMILES) | IC50 [3] | IC50 [4] | IC50 [5] | also measured |
| --- | --- | --- | --- | --- |
| CC(=O)N1CCN(c2ccc(OCC3COC(Cn4ccnc4)(c4ccc(Cl)cc4Cl)O3)cc2)CC1 (centres undefined) [KETOCONAZOLE] |  |  |  | IC50 ([1]; Trypanosoma cruzi): 3 µM; IC50 [2]: 2 µM |
| CCCN(CCC)c1ccc(S(=O)(=O)N([N+](=O)[O-])[N+](=O)[O-])cc1 | 12 µM |  |  | IC50 [2]: 65 µM |
| COc1cc(NS(C)(=O)=O)ccc1Nc1nc2ccc(Nc3ccccc3C(=O)O)cc2s1 |  | 22 µM | 13 µM |  |
| CCN(CC)CCCNc1nc2ccc(Nc3ccccc3C(=O)O)cc2s1 |  | 134 µM | 2 µM |  |
| O=C(O)c1ccccc1Nc1ccc2nc(Cl)sc2c1 |  | 17 µM | 5 µM |  |
| CNc1nc(NC)nc(NN)n1 | 200 µM |  |  |  |
| CN(C)c1ccc(Nc2nc3ccc(N)cc3s2)cc1 |  | 133 µM | 73 µM |  |
| CN(C)c1nc2ccc([N+](=O)[O-])cc2s1 |  | 200 µM | 4 µM |  |
| Nc1ccc2nc(NCCO)sc2c1 |  | 200 µM | 3 µM |  |
| CCCN(CCC)c1c([N+](=O)[O-])cc(S(=O)(=O)N(CC)CC)cc1[N+](=O)[O-] | 8 µM |  |  |  |
| CCN(CC)c1c([N+](=O)[O-])cc(S(=O)(=O)Nc2ccccc2)cc1[N+](=O)[O-] | 3 µM |  |  |  |
| O=[N+]([O-])c1ccc2nc(Nc3cccc(O)c3)sc2c1 |  | 174 µM | 15 µM |  |
| CC(=O)Nc1nc2ccc(Nc3ccccc3C(=O)O)cc2s1 |  | 18 µM | 18 µM |  |
| COc1ccc2cc3c4ccccc4nc-3n(C)c2c1 |  |  |  | IC50 ([1]; Trypanosoma cruzi): 1 µM; IC50 [6]: 2 µM |
| O=C(O)c1ccccc1Nc1ccc2nc(Nc3cccc(O)c3)sc2c1 |  | 134 µM | 237 µM |  |
| O=C(O)c1ccccc1Nc1ccc2nc(Nc3ccccc3)sc2c1 |  | 41 µM | 30 µM |  |
| COc1cc(NS(C)(=O)=O)ccc1Nc1nc2ccc([N+](=O)[O-])cc2s1 |  | 83 µM | 18 µM |  |
| CC(C)(C)OC(=O)NC(=N)c1ccc(NC(=O)Cn2ccnc2[N+](=O)[O-])cc1 | 119 µM |  |  |  |
| Nc1ccc2nc(Cl)sc2c1 |  | 200 µM | 54 µM |  |
| C[C@@H]1[C@H](O)[C@@H](C)/C=C/C=C/C=C/C=C/C=C/C=C/C=C/[C@H](O[C@@H]2O[C@H](C)[C@@H](O)[C@H](N)[C@@H]2O)C[C@@H]2O[C@](O)(C[C@@H](O)C[C@@H](O)[C@H](O)CC[C@@H](O)C[C@@H](O)CC(=O)O[C@H]1C)C[C@H](O)[C@H]2C(=O)O [AMPHOTERICIN B] |  | 12 µM |  |  |
| O=C(O)c1ccccc1Nc1ccc2nc(N3CCCCC3)sc2c1 |  | 83 µM | 15 µM |  |
| CCCNc1nc2ccc(Nc3ccccc3C(=O)O)cc2s1 |  | 76 µM | 39 µM |  |
| CCCN(CCC)c1c([N+](=O)[O-])cc(S(=O)(=O)N2CCCC2)cc1[N+](=O)[O-] | 7 µM |  |  |  |

| Structure (SMILES) | IC50 [3] | IC50 [4] | IC50 [5] | also measured |
| --- | --- | --- | --- | --- |
| O=[N+]([O-])c1ccc2nc(NCCO)sc2c1 |  | 200 µM | 104 µM |  |
| CCCN(CCC)c1c([N+](=O)[O-])cc(S(=O)(=O)NC2CC2)cc1[N+](=O)[O-] | 3 µM |  |  |  |
| CCCNc1nc2ccc(N)cc2s1 |  | 200 µM | 98 µM |  |
| O=[N+]([O-])c1ccc2nc(Cl)sc2c1 |  | 2 µM | 48 µM |  |
| CCN(CC)c1nc2ccc(N)cc2s1 |  | 200 µM | 23 µM |  |
| O=C(O)c1ccccc1Nc1ccc2nc(NCCO)sc2c1 |  | 158 µM | 4 µM |  |
| CCCN(CCC)c1c([N+](=O)[O-])cc(S(=O)(=O)Nc2cccc(C)c2)cc1[N+](=O)[O-] | 2 µM |  |  |  |
| CN(C)c1nc2ccc(Nc3ccccc3C(=O)O)cc2s1 |  | 102 µM | 80 µM |  |
| Cc1ccc2c(c1)cc1c3ccccc3nc-1n2C |  |  |  | IC50 ([1]; Trypanosoma cruzi): 4 µM; IC50 [6]: 2 µM |
| CCCN(CCC)c1c([N+](=O)[O-])cc(S(=O)(=O)Nc2ccc(Cl)c(Cl)c2)cc1[N+](=O)[O-] | 8 µM |  |  |  |
| CCCN(CCC)c1c([N+](=O)[O-])cc(S(=O)(=O)N(C)C)cc1[N+](=O)[O-] | 6 µM |  |  | IC50 [2]: 100 µM |
| CC(C)(C)OC(=O)NC(=N)c1ccc(NC(=O)Cn2cnc([N+](=O)[O-])c2)cc1 | 200 µM |  |  |  |
| Nc1ccc2nc(Nc3ccccc3)sc2c1 |  | 208 µM | 63 µM |  |
| CN(C)c1ccc(Nc2nc3ccc(Nc4ccccc4C(=O)O)cc3s2)cc1 |  | 26 µM | 68 µM |  |
| Nc1ccc2nc(N)sc2c1 |  | 200 µM | 151 µM |  |
| CCCNc1nc2ccc([N+](=O)[O-])cc2s1 |  | 200 µM | 1 µM |  |
| O=[N+]([O-])c1ccc2nc(N3CCCCC3)sc2c1 |  | 189 µM | 6 µM |  |
| CCN(CC)CCCNc1nc2ccc(N)cc2s1 |  | 200 µM | 65 µM |  |
| CCCN(CCC)c1c([N+](=O)[O-])cc(S(=O)(=O)NCC)cc1[N+](=O)[O-] | 5 µM |  |  | IC50 [2]: 100 µM |
| CNc1nc(NC)nc(N/N=C\c2ccc([N+](=O)[O-])o2)n1 | 15 µM |  |  |  |
| CCCN(CCC)c1c([N+](=O)[O-])cc(S(=O)(=O)Nc2cccc(OC)c2)cc1[N+](=O)[O-] | 1 µM |  |  | IC50 [2]: 8 µM |
| CC(=O)Nc1nc2ccc(N)cc2s1 |  | 200 µM | 121 µM |  |
| O=[N+]([O-])c1ccc2nc(Nc3ccccc3)sc2c1 |  | 186 µM | 36 µM |  |

| Structure (SMILES) | IC50 [3] | IC50 [4] | IC50 [5] | also measured |
| --- | --- | --- | --- | --- |
| Nc1nc2ccc(Nc3ccccc3C(=O)O)cc2s1 |  | 125 µM | 2 µM |  |
| CCCN(CCC)c1c([N+](=O)[O-])cc(S(=O)(=O)NC)cc1[N+](=O)[O-] | 5 µM |  |  | IC50 [2]: 100 µM |
| COc1cc(NS(C)(=O)=O)ccc1Nc1nc2ccc(N)cc2s1 |  | 156 µM | 10 µM |  |
| Nc1nc(N)nc(N/N=C\c2ccc([N+](=O)[O-])s2)n1 | 1 µM |  |  |  |
| CC(=O)Nc1nc2ccc([N+](=O)[O-])cc2s1 |  | 200 µM | 1 µM |  |
| CCCN(CCC)c1c([N+](=O)[O-])cc(S(=O)(=O)Nc2ccccn2)cc1[N+](=O)[O-] | 9 µM |  |  |  |
| CCCN(CCC)c1c([N+](=O)[O-])cc(S(=O)(=O)Nc2cccc(Cl)c2)cc1[N+](=O)[O-] | 2 µM |  |  | IC50 [2]: 6 µM |
| CCCN(CCC)c1c([N+](=O)[O-])cc(S(=O)(=O)NC(C)C)cc1[N+](=O)[O-] | 4 µM |  |  | IC50 [2]: 100 µM |
| CN(C)c1nc2ccc(N)cc2s1 |  | 200 µM | 2 µM |  |
| Cc1ncc([N+](=O)[O-])n1CCO [METRONIDAZOLE] |  | 3 µM |  |  |
| COc1ccc2c(c1)cc1c3ccccc3nc-1n2C |  |  |  | IC50 ([1]; Trypanosoma cruzi): 2 µM; IC50 [6]: 5 µM |
| CCCNS(=O)(=O)c1cc([N+](=O)[O-])c(N(CCC)CCC)c([N+](=O)[O-])c1 | 9 µM |  |  |  |
| CN(C)c1ccc(Nc2nc3ccc([N+](=O)[O-])cc3s2)cc1 |  | 166 µM | 25 µM |  |
| Nc1nc2ccc([N+](=O)[O-])cc2s1 |  | 200 µM | 51 µM |  |
| NNc1nc(N)nc(N)n1 | 200 µM |  |  |  |
| CCN(CC)c1nc2ccc(Nc3ccccc3C(=O)O)cc2s1 |  | 3 µM | 33 µM |  |
| C[S+]([O-])CCCCN=C=S (centres undefined) [SULFORAPHANE] |  |  |  | IC50 [1]: 102 µM; IC50 ([1]; Trypanosoma cruzi): 120 µM |
| O=C(/C=C/C=C/C=C/c1ccc2c(c1)OCO2)N1CCCCC1 |  |  |  | IC50 ([1]; Trypanosoma cruzi): 7 µM |
| CCN(CC)CCCNc1nc2ccc([N+](=O)[O-])cc2s1 |  | 49 µM | 4 µM |  |
| CCN(CC)c1nc2ccc([N+](=O)[O-])cc2s1 |  | 200 µM | 99 µM |  |
| Nc1ccc2nc(Nc3cccc(O)c3)sc2c1 |  | 200 µM | 19 µM |  |
| Nc1ccc2nc(N3CCCCC3)sc2c1 |  | 214 µM | 10 µM |  |
